Source: patent US11491232B2, “Lactuloside compounds and preparation and use thereof” (Fruithy Holdings Limited, priority 2017, dated 2022)
Read-outs that look alike come from different tables or passages of the source.

Key:
[1] = tested on: ulcerative colitis models of Wistar rat induced by enema with trinitrobenzenesulfonic acid (TNBS); test: Pharmacodynamic effect of intragastric administration in ulcerative colitis models of Wistar rat induced by TNBS enema; format: in vivo; conditions: Wistar rats; for colon coefficient on Day 8 after modeling compared with the model control group / histopathological score of colon on Day 8 after modeling compared with the model control group / body weight change (increase) on Day 8 after modeling as compared to the model group: intragastric qd × 7, Compound 1 1.91 mg/kg; for colon coefficient on Day 8 after modeling compared with the model control group: prednisolone 1 mg/kg (FIG. 6); for histopathological score of colon on Day 8 after modeling compared with the model control group: prednisolone 1 mg/kg (FIG. 7); for body weight change (increase) on Day 8 after modeling as compared to the model group: prednisolone 1 mg/kg, only Compound 1 vs model significant (FIG. 5)
Experimental: Comparison research among therapeutic effects of Compound 1 and a commercial formulation of prednisolone (prednisolone tablet, produced by Wuhan Yuancheng Co-Creation Technology Co., Ltd.) on ulcerative colitis models of Wistar rats after intragastric administration was carried out to further evaluate the improvement in main therapeutic effect indexes of the intragastric perfusion therapy of Compound 1 and compare it with that of treatment group with equivalent moles of a commercial formulation of prednisolone, thereby providing pharmacodynamic support for further development of Compound 1.
According to the experiment, 40 male Wistar rats (180-220 grams) were purchased, and randomly divided into four groups (i.e., physiological saline control group, model control group, prednisolone group and Compound 1 group), and there were 10 animals in each group. Except the physiological saline control group, ulcerative colitis animal models were produced by once enema administration of a mixed solution of 2.5% TNBS-50% ethanol (containing 80 mg/kg TNBS) to experiment animals in other three groups in an amount of 3.2 ml/kg. For the physiological control group, physiological saline was once administered by enema in an amount of 3.2 ml/kg. At 24 h after the modeling administration, the corresponding solvent control or therapeutic drugs were administered by enema depending on animal groups (qd×7d (one dose per day, for 7 days)), and detailed grouping and administration information is as shown in Table 14 below.
During the investigation, the main indexes to be observed include: death of animals, clinical observation, body weight, colon coefficient, histopathological examination of animals, and so on. For each experiment group, on Day 8 after modeling, animals were sacrificed. Colon tissues were collected to calculate the colon coefficient (colon coefficient=colon weight (g)/animal body weight (g) * 100%).

[2] = rat, in vivo; for Concentration of prednisolone in the content, The first half segment of Small intestine / Concentration of prednisolone in the content, The last half segment of Small intestine: male, Sprague-Dawley (SD)
Experimental: (§2) For the experiment animals of Group 1, Group 2 and Group 3, at each time point of 30 min, 1 h, 2 h, 3 h, 4 h, 5 h, 6 h, 8 h, and 10 h after the administration, 4 animals were randomly selected and sacrificed. The blood samples were collected, and the contents in the stomach and various segments of the intestine tract (the first half segment of the small intestine, the last half segment of the small intestine, the first third segment of the colon (including cecum), and the last two thirds segment of the colon) were weighed. […] 4 animals of Group 4 were sacrificed at the time point of 10 h. The blood samples and the contents in various segments of the gastrointestinal tract were collected as blank control.

[3] = Test on stability in mediums in vitro (buffer solutions with different pH, simulated intestinal fluid, simulated gastric fluid); format: physicochemical
Experimental: At 37° C., Compound 17 was incubated in different mediums (buffer solutions with different pH, a simulated intestinal fluid containing pancreatin, and simulated gastric fluid containing pepsin).
(§1) Other typical example compounds were tested for stability according to the above method, and the test results are shown in Table 8 below.

[4] = Systemic pharmacokinetics (plasma) after oral administration to SD rats; format: in vivo
Experimental: as §2

colon flora = test: Stability in the presence of colon flora (content in colon of rat); format: in vitro ADME, SD rat; conditions: male, Sprague-Dawley (SD), rat, 1 h, pH 6.8
Experimental: A phosphate buffer solution with a pH of 7.0 was formulated, and then CO2 was introduced to the solution to adjust the pH to 6.8. Then, the content in colon of a male SD rat (body weight: 180-220 g) was placed in a water bath at 37° C., and added into the phosphate buffer solution with a pH of 6.8 as prepared above under the protection of N2 to a concentration of 20% (w/v). The buffer solution was kept in an oxygen-free environment. Then, the test Compound 17 was added to the buffer solution, and the solution was stirred uniformly.
Supernatant was analyzed with HPLC, where the amount of each ingredient was calculated by normalization.
Note: in the above table, “T14.148 (%)” represents the percentage of peak area of the material with a retention time of 14.148 min “T14.713 (%)” represents the percentage of peak area of the material with a retention time of 14.713 min. “T16.392 (%)” represents the percentage of peak area of the material with a retention time of 16.392 min. “T22.624 (%)” represents the percentage of peak area of the material with a retention time of 22.624 min.
as §1

[5] = Simulated intestinal fluid (containing pancreatin) (pH 6.8) (8 h)
[6] = intragastric administration, FIG. 3

SMILES: C[C@]12C=CC(=O)C=C1CC[C@@H]1[C@@H]2[C@@H](O)C[C@@]2(C)[C@H]1CC[C@]2(O)C(=O)CO [Prednisolone, prednisolone]
- colon coefficient on Day 8 after modeling compared with the model control group [1]: not statistically significant
- histopathological score of colon on Day 8 after modeling compared with the model control group [1]: not statistically significant
- body weight change (increase) on Day 8 after modeling as compared to the model group [1]: higher than that for the model group
- Concentration of prednisolone in the content, The first half segment of Small intestine ([2]; 0.5 h): 16.66 ± 2.89 nmol/g
- Concentration of prednisolone in the content, The last half segment of Small intestine ([2]; 0.5 h): 16.27 ± 3.34 nmol/g
- Concentration of prednisolone in the content, The first half segment of Small intestine ([2]; 1 h): 19.20 ± 3.44 nmol/g
- Concentration of prednisolone in the content, The last half segment of Small intestine ([2]; 2 h): 19.81 ± 2.77 nmol/g
- Concentration of prednisolone in the content, The first half segment of Small intestine ([2]; 3 h): 21.16 ± 2.18 nmol/g
- Concentration of prednisolone in the content, The last half segment of Small intestine ([2]; 3 h): 20.47 ± 3.08 nmol/g
- Concentration of prednisolone in the content, The first half segment of Small intestine ([2]; 4 h): 17.38 ± 3.04 nmol/g
- Concentration of prednisolone in the content, The last half segment of Small intestine ([2]; 4 h): 13.27 ± 2.09 nmol/g
- Concentration of prednisolone in the content, The first half segment of Small intestine ([2]; 5 h): 7.34 ± 1.38 nmol/g
- Concentration of prednisolone in the content, The last half segment of Small intestine ([2]; 5 h): 6.94 ± 1.35 nmol/g
- Concentration of prednisolone in the content, The first half segment of Small intestine ([2]; 6 h): 0.36 ± 0.05 nmol/g
- Concentration of prednisolone in the content, The last half segment of Small intestine ([2]; 6 h): 0.32 ± 0.06 nmol/g
- Concentration of prednisolone in the content, The last half segment of Small intestine ([2]; 8 h): 0.04 ± 0.01 nmol/g
- Cmax value of prednisolone in the content, Stomach ([2]; po, 5 mg/kg): 370.53 nmol/g
- Cmax value of prednisolone in the content, The first half segment of Small intestine ([2]; po, 5 mg/kg): 51.92 nmol/g
- Cmax value of prednisolone in the content, The first third segment (including cecum) of Colon ([2]; po, 5 mg/kg): 0.70 nmol/g
- Cmax value of prednisolone in the content, The last half segment of Small intestine ([2]; po, 5 mg/kg): 22.05 nmol/g
- Cmax value of prednisolone in the content, The last two thirds segment of Colon ([2]; po, 5 mg/kg): 0.14 nmol/g

SMILES: C[C@]12C=CC(=O)C=C1CC[C@@H]1[C@@H]2[C@@H](O)C[C@@]2(C)[C@H]1CC[C@]2(O)C(=O)COC1(CO)O[C@H](CO)[C@@H](O[C@@H]2O[C@H](CO)[C@H](O)[C@H](O)[C@H]2O)[C@@H]1O (stereo partly drawn) [Compound 1, (11β)-11,17-dihydroxyl-21-{[4-O-(β-D-galactopyranosyl)-D-fructofuranosyl]oxy}pregna-1,4-diene-3,20-dione]
- day after modeling on which the body weight began to rise ([1]; TNBS model, intragastric qd × 7, 1.91 mg/kg): 4 days
- colon coefficient on Day 8 after modeling compared with the model control group [1]: significantly lower than that for the model control group (p<0.05)
- histopathological score of colon on Day 8 after modeling compared with the model control group [1]: significantly lower than that for the model control group (p<0.05)
- body weight change (increase) on Day 8 after modeling as compared to the model group [1]: statistically significant
- Percentage of the example compound remaining (Composition, %) [3, 5]: 99.0%
- Percentage of the released active drug (prednisolone, dexamethasone, budesonide, apremilast or prucalopride) (Composition, %) [3, 5]: 0.2%
- Percentage of the example compound remaining (Composition, %) ([3]; Water (pH 1.2) (2 h)): 30.4%
- Percentage of the released active drug (prednisolone, dexamethasone, budesonide, apremilast or prucalopride) (Composition, %) ([3]; Water (pH 1.2) (2 h)): 67.2%
- plasma prednisolone Cmax as compared to free prednisolone group [4, 6]: very low
- plasma prednisolone time to peak as compared to free prednisolone group [4, 6]: significantly delayed
- concentration at 0.5 h ([4]; male, Sprague-Dawley, rat, plasma, oral, 9.55 mg/kg intragastric, 0.5 h (only time point with detection), read-out: concentration of Compound 1 in the rat plasma): 10.4 ng/mL
- Percentage of the example compound remaining (Composition, %) (colon flora): 22.1%
- Percentage of the released active drug (prednisolone, dexamethasone, budesonide, apremilast or prucalopride) (Composition, %) (colon flora): 39.7%
- passage through the gastrointestinal tract of a mammal (absorption and hydrolysis) [2]: without being absorbed significantly by the gastrointestinal tract and hydrolyzed significantly by endogenous enzymes of a mammal host
- factor of increase of maximum concentrations (Cmax) of local prednisolone in the cecum and colon sites as compared to prednisolone group ([2]; po): 65-360
- total exposure (AUC) of local prednisolone in the cecum and colon sites compared with prednisolone group ([2]; po): much higher than the prednisolone (original form) group
